From patent publication US11357857B2, “Excipient compounds for protein processing” (COMERA LIFE SCIENCES, INC., priority 2014, dated 2022)
Values joined by “and” are separate entries in the source; they are usually repeats but may differ in a detail not shown here. Equal entries are not always repeated. Structures can show the parent of a compound that is named as a salt. Where two headings read alike, the source gives them in different places.

How the values were obtained:
[1] = system: bovine gamma globulin (BGG)
[2] = system: bovine gamma globulin (BGG); test: Viscosity of 280 mg/mL BGG formulations in 50 mM histidine HCl pH 6 with excipient, cone and plate viscometer (Examples 1, 2, 4-6); format: physicochemical
[3] = Viscosity of PEG (Mw ~1,000,000) solution in Tris buffer with excipient (Examples 12-13); format: physicochemical

CCCCn1cc[n+](C)c1.[Cl-] [1-butyl-3-methylimidazolium chloride]
Viscosity Reduction ([1]; excipient 100 mg/mL): 52%

CCCCn1cc[n+](C)c1.[I-] [1-butyl-3-methylimidazolium iodide]
Viscosity Reduction ([1]; excipient 60 mg/mL): 34%

CCCCCCn1cc[n+](C)c1.[Cl-] [1-hexyl-3-methylimidazolium chloride]
Viscosity Reduction ([1]; excipient 65 mg/mL): 11%

Cc1cc(C)nc(C)c1 [2,4,6-trimethylpyridine]
Viscosity Reduction ([1]; excipient 50 mg/mL): 51%

O=C1CCCN1 [2-Pyrrolidinone]
Viscosity Reduction ([1]; excipient 60 mg/mL): 32%

CC1=NCCN1.Cl [2-methyl-2-imidazoline HCl]
Normalized Viscosity ([1]; excipient 60 mg/mL): 0.43
Viscosity Reduction ([1]; excipient 60 mg/mL): 57%

Nc1cccnc1 [3-aminopyridine]
Viscosity Reduction ([1]; excipient 50 mg/mL): 49%

Nc1ncnc2c1ncn2[C@@H]1O[C@H](COP(=O)(O)O)[C@@H](O)[C@H]1O [Adenosine monophosphate]
Viscosity ([2]; excipient 26 mg/mL): 47 cP
Viscosity Reduction ([2]; excipient 26 mg/mL): 41%
Viscosity ([2]; excipient 50 mg/mL): 66 cP
Viscosity Reduction ([2]; excipient 50 mg/mL): 16%

N=C(N)NCCCCN.O=S(=O)(O)O [Agmatine sulfate]
Viscosity Reduction ([1]; excipient 55 mg/mL): 23%

O=C(O)CCCC[C@@H]1SC[C@@H]2NC(=O)N[C@@H]21 [Biotin]
Viscosity Reduction ([1]; excipient 20 mg/mL): 31%

O=C(O)[C@H](O)[C@@H](O)[C@H](O)[C@H](O)CO [D-Gluconic acid/K salt, D-Gluconic acid]
Viscosity ([3]; excipient 20 mg/mL): 88.4 cP
Viscosity Reduction ([3]; excipient 20 mg/mL): 16%
Viscosity ([3]; excipient 40 mg/mL): 80.32 cP
Viscosity Reduction ([3]; excipient 40 mg/mL): 23%

O=C(O)[C@H](O)[C@@H](O)[C@H](O)[C@H](O)CO [D-Gluconic acid/Na salt, D-Gluconic acid]
Viscosity ([3]; excipient 20 mg/mL): 86.6 cP
Viscosity Reduction ([3]; excipient 20 mg/mL): 17%
Viscosity ([3]; excipient 40 mg/mL): 81.24 cP
Viscosity Reduction ([3]; excipient 40 mg/mL): 23%

NC(C1CCCCC1)C1CCCCC1 [DCHMA-HCl, dicyclohexylmethylamine]
Viscosity ([2]; excipient 29 mg/mL): 51 cP
Viscosity Reduction ([2]; excipient 29 mg/mL): 35%
Viscosity ([2]; excipient 50 mg/mL): 51 cP
Viscosity Reduction ([2]; excipient 50 mg/mL): 35%

CN(C)CCCN [DMAPA-HCl, dimethylaminopropylamine]
Viscosity ([2]; excipient 40 mg/mL): 54 cP
Viscosity Reduction ([2]; excipient 40 mg/mL): 32%
Viscosity ([2]; excipient 87 mg/mL): 57 cP
Viscosity Reduction ([2]; excipient 87 mg/mL): 28%

O=C(O)CN(CCN(CC(=O)O)CC(=O)O)CC(=O)O [EDTA/K salt, ethylenediaminetetraacetic acid (EDTA)]
Viscosity ([3]; excipient 20 mg/mL): 76.9 cP
Viscosity Reduction ([3]; excipient 20 mg/mL): 27%
Viscosity ([3]; excipient 40 mg/mL): 67.1 cP
Viscosity Reduction ([3]; excipient 40 mg/mL): 36%

O=C(O)CN(CCN(CC(=O)O)CC(=O)O)CC(=O)O [EDTA/Na salt, ethylenediaminetetraacetic acid (EDTA)]
Viscosity ([3]; excipient 20 mg/mL): 77.4 cP
Viscosity Reduction ([3]; excipient 20 mg/mL): 26%
Viscosity ([3]; excipient 40 mg/mL): 68.1 cP
Viscosity Reduction ([3]; excipient 40 mg/mL): 35%

NCCN [Ethylene diamine]
Viscosity ([3]; excipient 20 mg/mL): 83.9 cP
Viscosity Reduction ([3]; excipient 20 mg/mL): 15%
Viscosity ([3]; excipient 40 mg/mL): 84.7 cP
Viscosity Reduction ([3]; excipient 40 mg/mL): 17%

Cl.NCCc1c[nH]cn1 [Histamine HCl]
Viscosity Reduction ([1]; excipient 50 mg/mL): 59%

c1c[nH]cn1 [Imidazole HCl]
Viscosity Reduction ([1]; excipient 100 mg/mL): 57%

NC(=O)c1ccncc1 [Isonicotinamide]
Viscosity Reduction ([1]; excipient 50 mg/mL): 52%

Cn1cncc1C[C@H](NC(=O)CCN)C(=O)O.O=[N+]([O-])O [L-Anserine nitrate]
Viscosity Reduction ([1]; excipient 50 mg/mL): 21%

C1COCCN1.Cl [Morpholine HCl]
Viscosity Reduction ([1]; excipient 50 mg/mL): 40%

CCN(CC)C(=O)c1cccnc1 [N,N-diethyl nicotinamide]
Viscosity Reduction ([1]; excipient 50 mg/mL): 33%

CN1CCCC1=O [N-Methyl-2-pyrrolidone]
Viscosity ([2]; excipient 30 mg/mL): 45 cP
Viscosity Reduction ([2]; excipient 30 mg/mL): 43%
Viscosity ([2]; excipient 52 mg/mL): 52 cP
Viscosity Reduction ([2]; excipient 52 mg/mL): 34%

O=C([O-])c1cccnc1.[Na+] [Nicotinic acid, sodium salt]
Viscosity Reduction ([1]; excipient 100 mg/mL): 46%

N=C(N)NCCS(=O)(=O)O [Product of Example 8, Guanyl taurine]
Viscosity ([2]; excipient 26 mg/mL): 58 cP
Viscosity Reduction ([2]; excipient 26 mg/mL): 27%
Viscosity ([2]; excipient 58 mg/mL): 50 cP
Viscosity Reduction ([2]; excipient 58 mg/mL): 37%
Viscosity ([2]; excipient 76 mg/mL): 49 cP
Viscosity Reduction ([2]; excipient 76 mg/mL): 38%
Viscosity ([2]; excipient 103 mg/mL): 46 cP
Viscosity Reduction ([2]; excipient 103 mg/mL): 42%
Viscosity ([2]; excipient 129 mg/mL): 47 cP
Viscosity Reduction ([2]; excipient 129 mg/mL): 41%
Viscosity ([2]; excipient 159 mg/mL): 42 cP
Viscosity Reduction ([2]; excipient 159 mg/mL): 47%
Viscosity ([2]; excipient 163 mg/mL): 42 cP
Viscosity Reduction ([2]; excipient 163 mg/mL): 47%

O=C([O-])c1ccccc1.[Na+] [Sodium benzoate]
Viscosity ([2]; excipient 31 mg/mL): 61 cP
Viscosity Reduction ([2]; excipient 31 mg/mL): 23%
Viscosity ([2]; excipient 56 mg/mL): 62 cP
Viscosity Reduction ([2]; excipient 56 mg/mL): 22%

O=C([O-])C(=O)Cc1ccccc1.[Na+] [Sodium phenylpyruvate]
Viscosity Reduction ([1]; excipient 55 mg/mL): 43%

O=C([O-])c1ccccc1O.[Na+] [Sodium salicylate]
Viscosity [2]: 57 cP and 52 cP

Nc1ccc(S(=O)(=O)[O-])cc1.[Na+] [Sodium sulfanilate]
Viscosity ([2]; excipient 44 mg/mL): 49 cP
Viscosity Reduction ([2]; excipient 44 mg/mL): 38%
Viscosity ([2]; excipient 96 mg/mL): 42 cP
Viscosity Reduction ([2]; excipient 96 mg/mL): 47%

COc1cc(C(=O)[O-])ccc1O.[Na+] [Vanillic acid, sodium salt]
Viscosity ([2]; excipient 25 mg/mL): 56 cP
Viscosity Reduction ([2]; excipient 25 mg/mL): 29%
Viscosity ([2]; excipient 50 mg/mL): 50 cP
Viscosity Reduction ([2]; excipient 50 mg/mL): 37%

CC(O)(P(=O)(O)O)P(=O)(O)O [etidronic acid/K salt, etidronic acid]
Viscosity ([3]; excipient 12 mg/mL): 80.5 cP
Viscosity Reduction ([3]; excipient 12 mg/mL): 23%
Viscosity ([3]; excipient 24 mg/mL): 71.91 cP
Viscosity Reduction ([3]; excipient 24 mg/mL): 31%

CC(O)(P(=O)(O)O)P(=O)(O)O [etidronic acid/Na salt, etidronic acid]
Viscosity ([3]; excipient 12 mg/mL): 79.4 cP
Viscosity Reduction ([3]; excipient 12 mg/mL): 24%
Viscosity ([3]; excipient 24 mg/mL): 71.6 cP
Viscosity Reduction ([3]; excipient 24 mg/mL): 32%

O=P(O)(O)OCC(O)CO (stereo not drawn) [glycerol phosphate]
Viscosity ([3]; excipient 20 mg/mL): 83.9 cP
Viscosity Reduction ([3]; excipient 20 mg/mL): 18%
Viscosity ([3]; excipient 40 mg/mL): 71.7 cP
Viscosity Reduction ([3]; excipient 40 mg/mL): 30%

Arg-Arg [Dipeptide RR (Arg-Arg)]
Viscosity ([2]; excipient 50 mg/mL): 57 cP
Viscosity Reduction ([2]; excipient 50 mg/mL): 28%
Viscosity ([2]; excipient 100 mg/mL): 62 cP
Viscosity Reduction ([2]; excipient 100 mg/mL): 22%

Arg-Glu [Dipeptide RE (Arg-Glu)]
Viscosity ([2]; excipient 50 mg/mL): 50 cP
Viscosity Reduction ([2]; excipient 50 mg/mL): 37%
Viscosity ([2]; excipient 100 mg/mL): 66 cP
Viscosity Reduction ([2]; excipient 100 mg/mL): 16%

Arg-His [Dipeptide RH (Arg-His)]
Viscosity ([2]; excipient 50 mg/mL): 52 cP
Viscosity Reduction ([2]; excipient 50 mg/mL): 34%
Viscosity ([2]; excipient 100 mg/mL): 72 cP
Viscosity Reduction ([2]; excipient 100 mg/mL): 9%

Arg-Lys [Dipeptide RK (Arg-Lys)]
Viscosity ([2]; excipient 50 mg/mL): 53 cP
Viscosity Reduction ([2]; excipient 50 mg/mL): 33%
Viscosity ([2]; excipient 100 mg/mL): 64 cP
Viscosity Reduction ([2]; excipient 100 mg/mL): 19%

Arg-Pro [Dipeptide RP (Arg-Pro)]
Viscosity ([2]; excipient 50 mg/mL): 51 cP
Viscosity Reduction ([2]; excipient 50 mg/mL): 35%
Viscosity ([2]; excipient 100 mg/mL): 53 cP
Viscosity Reduction ([2]; excipient 100 mg/mL): 33%

Leu-Glu [Dipeptide LE (Leu-Glu)]
Viscosity ([2]; excipient 50 mg/mL): 72 cP
Viscosity Reduction ([2]; excipient 50 mg/mL): 9%
Viscosity ([2]; excipient 100 mg/mL): 87 cP
Viscosity Reduction ([2]; excipient 100 mg/mL): −10%

Trp2Lys3
Viscosity ([2]; excipient 50 mg/mL): 60 cP
Viscosity Reduction ([2]; excipient 50 mg/mL): 24%
Viscosity ([2]; excipient 100 mg/mL): 59 cP
Viscosity Reduction ([2]; excipient 100 mg/mL): 25%

Tyr-Glu [Dipeptide YE (Tyr-Glu)]
Viscosity ([2]; excipient 50 mg/mL): 55 cP
Viscosity Reduction ([2]; excipient 50 mg/mL): 30%
Viscosity ([2]; excipient 100 mg/mL): 68 cP
Viscosity Reduction ([2]; excipient 100 mg/mL): 14%

dimethylcyclohexylammonium hydroxybenzoate [DMCHA-hydroxybenzoate]
Viscosity ([2]; excipient 67 mg/mL): 46 cP
Viscosity Reduction ([2]; excipient 67 mg/mL): 42%
Viscosity ([2]; excipient 92 mg/mL): 42 cP
Viscosity Reduction ([2]; excipient 92 mg/mL): 47%
